According to patent publication US7985832B2, “Antimicrobial cathelicidin peptides” (Kansas State University Research Foundation, priority 2005, dated 2011):
Ends that are not written are not given here.

Key:
[1] = tested on: skin S. aureus; settings: literature (Murakami et al.); cited from earlier work
[2] = tested on: dog erythrocytes; type: cell-based
Experimental: (§1) Hemolytic activity of K9CATH was determined (Skerlavag, FEBS Lett., 463:58 (1999); Yu et al., J. Pept. Res., 60:1 (2002)). Briefly, 4 mL of canine blood was collected in EDTA-containing blood collection tubes (Becton Dickinson, Franklin Lakes, N.J.). Whole blood was then centrifuged at 10,000×g for 1 minute at room temperature. Plasma was discarded (supernatant) and erythrocytes were washed twice with PBS, re-suspended to a 0.5% (vol/vol) solution in PBS, and 90 μL dispensed into 96-well microtiter plates. Different concentrations of K9CATH dissolved in 0.01% acetic acid were added in duplicate to dog cells and incubated at 37° C. for 2 hours. Following centrifugation at 8000×g for 10 minutes, supernatants were transferred to new 96-well microtiter plates and monitored by measuring the absorbance at […] for released hemoglobin. Controls for 0 and 100% hemolysis consisted of cells suspended in PBS only and in 1.0% Triton X-100, respectively. Percentage of hemolysis (%) was calculated as [(OD415 nm, peptide solution−OD415 nm, PBS only)/(OD415 nm, 1% Triton X-100−OD 415 nm, PBS only)]×100. The N-terminal 18 amino acid segment of bovine myeloid antimicrobial peptide 28 (BMAP-28(1-18)) (Skerlavaj et al., J. Biol. Chem., 271:28375 (1996); Yu et al., J. Pept. Res., 60:1 (2002); Risso et al., Cell. Immunol., 189:107 (1998)) was used as a positive control. […]

[3] = tested on: chicken erythrocytes; type: cell-based
Experimental: FIG. 9. Hemolytic Activity of Canine Cathelicidin. The assays were performed with chicken red blood cells as previously described (49). The data shown represent the mean of duplicate values from two independent experiments.
as §1, with “only)]×100.” for “only)]×100. The N-terminal 18 amino acid segment of bovine myeloid antimicrobial peptide 28 (BMAP-28(1-18)) (Skerlavaj et al., J. Biol. Chem., 271:28375 (1996); Yu et al., J. Pept. Res., 60:1 (2002); Risso et al., Cell. Immunol., 189:107 (1998)) was used as a positive control.”

[4] = tested on: Pseudomonas aeruginosa; type: cell-based
Text: (§2) Microorganisms against which a polypeptide of the invention is active include prokaryotic and eukaryotic cells such as Gram-negative and Gram-positive bacteria, yeast and protozoa. Non-limiting examples include Listeria monocytogenes, Staphylococcus aureus, Escherichia coli, Klebsiella pneumoniae, Salmonella typhimurium, Pseudomonas aeruginosa, Proteus mirabilis, Salmonella enteritidis, Neisseria gonorrhoeae, Ureaplasma canigenitalium, Ureaplasma urealyticum, Candida albicans, Trichomonas vaginalis, Treponema pallidum or Chlamydia trachomatis, or a spoilage organism. […] MIC antimicrobial activity refers to complete inhibition of the growth of a microorganism, as judged by the naked eye, after a selected period of incubation. The method used to determine MIC is that set forth in Sang et al., Infection and Immunity, 2611-20 (May, 2005).
(§3) Microorganisms evaluated were: Candida albicans ATCC 11006 and 14053, Escherichia coli ATCC 25922, 700336, 700378, and BAA-457, Klebsiella pneumoniae ATCC 10031, Listeria monocytogenes ATCC 19155, Proteus mirabilis ATCC 12453, Pseudomonas aeruginosa ATCC 10145, Salmonella Enteritidis ATCC 13076, Salmonella Typhimurium ATCC 13311, Staphylococcus aureus ATCC 10832, Ureaplasma canigenitalium ATCC 51252, and Ureaplasma urealyticum ATCC 27619. C. albicans was grown overnight (35° C.) on potato dextrose agar and managed according to NCCSL standards (Pfaller et al., Manual NCCLS #M27-A2, 6th ed., Wayne, Pa. (2002)). U. canigenitalium and U urealyticum were stored at −20° C. in urea broth 10B (per ATCC specifications) and thawed at 5° C. the night prior to assay. All other bacteria were maintained on trypticase soy agar (Difco, Detroit, Mich.) plates at 37° C. Mid-logarithmic phase bacteria were grown by transferring single cell colonies into trypticase soy broth (Difco), followed by incubation and homogenization for 3 hours at 37° C. Bacterial pellets were obtained after centrifugation for 10 minutes at 4° C. at 900×g, and washed once, followed by suspension in 10 mM sodium phosphate buffer (PB, pH 7.4, [Na+]=17.83 mM). Initial bacterial concentrations were determined (Ferraro et al., Manual NCCLS #M7-A6, 6th ed., Wayne, Pa. (2003)). Initial bacterial populations of 10^8 CFU/mL were obtained at an optical density (OD) of 0.1 at 600 nm. C. albicans were suspended in 10 mM PB to a McFarland standard of 0.5 for an initial 10^8 CFU/ml following NCCLS standards (Pfaller et al., Manual NCCLS #M27-A2, 6th ed., Wayne, Pa. (2002)), except that the recommended 0.85% saline solution was replaced with 10 mM PB. All microbial serial dilutions were performed in 10 mM PB to obtain 10^3 CFU/mL working dilutions.
(§4) A modified broth microdilution method (Pfaller et al., Manual NCCLS #M27-A2, 6th ed., Wayne, Pa. (2002); Ferraro et al., Manual NCCLS #M7-A6, 6th ed., Wayne, Pa. (2003)) was used to determine the antimicrobial activity of K9CATH (Sang et al., Infect. Immun., 73:2611 (2005)). Briefly, 50 μL of the K9CATH working stocks were added to the wells of a microtiter plate in which 25 μL of 30 mM sodium PB (pH 7.4, [Na+]=53.49 mM), 25 μL H2O, and 50 μL of the microbial suspension had been previously combined. Microtiter plates were incubated at 37° C. for 2 hours in a shaking incubator (100 RPM), followed by the addition of 150 μL of the corresponding nutritive broth. Antimicrobial activity was determined by establishing the minimal inhibitory concentrations (MIC), defined as the lowest concentration in which microbial growth was prevented, as indicated by the lack of turbidity or color change in the medium (urea broth 10B) after 24 hours of incubation at 37° C. Treated gonorrheal suspension (50 μL) was spot-plated on chocolate agar, and the MIC was defined as the lowest concentration in which no colonies developed after 24 hours of incubation at 37° C. in 5% CO2. […]

[5] = tested on: Listeria monocytogenes; type: cell-based
Text: as §2, §3, §4

[6] = tested on: Salmonella Typhimurium; type: cell-based
Text: as §2, §3, §4

[7] = tested on: Klebsiella pneumoniae; type: cell-based
Text: as §2, §3, §4

[8] = tested on: Salmonella Enteritidis; type: cell-based
Text: as §2, §3, §4

[9] = tested on: Ureaplasma urealyticum; type: cell-based
Text: as §2, §3, §4

[10] = tested on: Escherichia coli; type: cell-based
Text: as §2, §3, §4

[11] = tested on: Proteus mirabilis; type: cell-based
Text: as §2, §3, §4

| Substance | concentration inhibiting skin S. aureus [1] [µM] | lower in vitro hemolytic activity compared to BMAP-18 [2] | lower in vitro hemolytic activity compared to BMAP-18 [3] | MIC [4] [µM] | MIC [5] [µM] | MIC [6] [µM] | MIC [7] [µM] | MIC [8] [µM] | MIC [9] [µM] | MIC [10] [µM] | MIC [11] [µM] |
| --- | --- | --- | --- | --- | --- | --- | --- | --- | --- | --- | --- |
| LL-37: human cathelicidin antimicrobial peptide (LLGDFFRKSKEKIGKEFKRIVQRIKDFLRNLVPRTES; Antibacterial peptide LL-37; UniProt P49913 134-170, looked up) | > 64 |  |  |  |  |  |  |  |  |  |  |
| RLKELITTGGQKIGEKIRRIGQRIKDFFKNLQPREEKS [K9CATH] |  | 10-20 fold | 10-20 fold | 1.11 | 0.44 | 1.11 | 1.11 | 0.44 | 44.33 | 1.11 | 1.11 |
